Data reported in ChEMBL document CHEMBL4627246, “Pyroglutamide-Based P2X7 Receptor Antagonists Targeting Inflammatory Bowel Disease” (J Med Chem, 2020).

Key:
Format in all cases: cell-based
IGROV-1 = experiment: Cytotoxicity against human IGROV1 cells assessed as effect on cell growth at 10 uM incubated for 48 hrs by sulforhodamine B assay; conditions: igrov-1, 48 h
MOLT-4 = experiment: Cytotoxicity against human MOLT4 cells assessed as effect on cell growth at 10 uM incubated for 48 hrs by sulforhodamine B assay; conditions: molt-4, 48 h
MDA-MB-231 = experiment: Cytotoxicity against human MDA-MB-231 cells assessed as effect on cell growth at 10 uM incubated for 48 hrs by sulforhodamine B assay; conditions: mda-mb-231, 48 h
NCI-H322M = experiment: Cytotoxicity against human NCI-H322M cells assessed as effect on cell growth at 10 uM incubated for 48 hrs by sulforhodamine B assay
PC-3 = experiment: Cytotoxicity against human PC3 cells assessed as effect on cell growth at 10 uM incubated for 48 hrs by sulforhodamine B assay; conditions: pc-3, 48 h
Malme-3M = experiment: Cytotoxicity against human MALME-3M cells assessed as effect on cell growth at 10 uM incubated for 48 hrs by sulforhodamine B assay
SF-268 = experiment: Cytotoxicity against human SF268 cells assessed as effect on cell growth at 10 uM incubated for 48 hrs by sulforhodamine B assay; conditions: sf-268, 48 h
CAKI-1 = experiment: Growth inhibition of human Caki1 cells assessed as growth percentage at 10 uM incubated for 48 hrs by sulforhodamine B assay; conditions: caki-1, 48 h
NCI-H23 = experiment: Cytotoxicity against human NCI-H23 cells assessed as effect on cell growth at 10 uM incubated for 48 hrs by sulforhodamine B assay; conditions: nci-h23, 48 h
SNB-75 = experiment: Cytotoxicity against human SNB75 cells assessed as effect on cell growth at 10 uM incubated for 48 hrs by sulforhodamine B assay; conditions: snb-75, 48 h
ACHN = experiment: Cytotoxicity against human ACHN cells assessed as effect on cell growth at 10 uM incubated for 48 hrs by sulforhodamine B assay
RPMI-8226 = experiment: Cytotoxicity against human RPMI8226 cells assessed as effect on cell growth at 10 uM incubated for 48 hrs by sulforhodamine B assay; conditions: rpmi-8226, 48 h
CCRF-CEM = experiment: Cytotoxicity against human CCRF-CEM cells assessed as effect on cell growth at 10 uM incubated for 48 hrs by sulforhodamine B assay
HL-60(TB) = experiment: Cytotoxicity against human HL-60(TB) cells assessed as effect on cell growth at 10 uM incubated for 48 hrs by sulforhodamine B assay
M14 = experiment: Cytotoxicity against human M14 cells assessed as effect on cell growth at 10 uM incubated for 48 hrs by sulforhodamine B assay; conditions: m14, 48 h
OVCAR-4 = experiment: Cytotoxicity against human OVCAR4 cells assessed as effect on cell growth at 10 uM incubated for 48 hrs by sulforhodamine B assay; conditions: ovcar-4, 48 h
HCT-15 = experiment: Cytotoxicity against human HCT15 cells assessed as effect on cell growth at 10 uM incubated for 48 hrs by sulforhodamine B assay; conditions: hct-15, 48 h
HOP-92 = experiment: Cytotoxicity against human HOP92 cells assessed as effect on cell growth at 10 uM incubated for 48 hrs by sulforhodamine B assay; conditions: hop-92, 48 h
U-251 = experiment: Cytotoxicity against human U251 cells assessed as effect on cell growth at 10 uM incubated for 48 hrs by sulforhodamine B assay; conditions: u-251, 48 h
SW-620 = experiment: Cytotoxicity against human SW620 cells assessed as effect on cell growth at 10 uM incubated for 48 hrs by sulforhodamine B assay; conditions: sw-620, 48 h

Measured: Activity

COc1ccc(CNC(=O)[C@@H]2CCC(=O)N2Cc2ccc(Cl)cc2Cl)c(OC)c1
Non-Toxic: all assays above

COc1ccc(N2C(=O)CC[C@H]2C(=O)NCc2ccc(Cl)cc2Cl)cc1
Non-Toxic: all assays above

O=C(NCc1ccc(Cl)cc1Cl)[C@@H]1COC(=O)N1c1cccs1
Non-Toxic: all assays above

O=C(NCc1ccc(Cl)cc1Cl)[C@@H]1CCC(=O)N1C(c1ccc(Cl)cc1)c1ccc(Cl)cc1
Non-Toxic: all assays above

CN1CCN(/C=C2\C[C@@H](C(=O)NCc3ccc(Cl)cc3Cl)N(c3cccs3)C2=O)CC1
Non-Toxic: all assays above

O=C(NCc1ccc(Cl)cc1Cl)[C@@H]1CCC(=O)N1c1cncs1
Non-Toxic: all assays above

CN1C(=O)C(C)(C)C[C@H]1C(=O)NCc1cccc(C(F)(F)F)c1Cl
Non-Toxic: all assays above

O=C(NCc1ccccc1Cl)[C@@H]1CCC(=O)N1c1ccccc1
Non-Toxic: all assays above

O=C1CCCC(C(=O)NCc2ccc(Cl)cc2Cl)N1 (stereo not given)
Non-Toxic: all assays above
